In patent US20170340698A1, “CYCLIC PEPTIDE SPECIFICALLY BINDING TO APOPTOTIC CELLS AND USE THEREOF” (KYUNGPOOK NATIONAL UNIVERSITY INDUSTRY-ACADEMIC COOPERATION …, priority 2014, published 2017):
Residues, ends and D or L forms follow the SMILES beside them.

Legend:
[1] = system: SNU-16 stomach tumor xenografts; assay: Anti-tumor treatment of mice: tumor volume, tumor weight, TUNEL staining; type: in vivo; settings: cisplatin 5 mg/kg i.p. once per week, cetuximab 1.5 mg/kg i.p. twice per week, two weeks; measured over three weeks
Method: Eight-week old female athymic (nu/nu) Balb/c mice were purchased from Orient laboratories (Seongnam, Korea) and were housed under specific-pathogen-free (SPF) conditions with laboratory chow and water ad libitum. Stomach tumor xenografts were established by subcutaneously injecting 1×10^7 SNU-16 cells in 100 ml saline into the right flank. Tumors were allowed to reach 50-60 mm^3 of volume before randomization and initiation of treatment. […] In the present experiment, a total of two rounds of anticancer drug treatment were conducted for two weeks. Changes in tumor size were measured using an automatic caliper over three weeks. Tumor volumes were calculated using the formula: volume=(length×width×height)/2. Tumor weights were measured after isolation of tumor mass.
To examine anti-tumor growth effect by cisplatin or cetuximab alone and in combination, tumor volumes and weights after the drug treatment were measured.

[2] = Stability of peptides in the serum (C18 reverse phase FPLC, MS); type: in vitro ADME, mice; settings: mouse serum
From the text: Peptide stability in the serum was examined by the same method referring to the following documents Yoo S A, Bae D G, Ryoo J W, Kim H R, Park G S, et al. (2005) Arginine-rich antivascular endothelial growth factor (anti-VEGF) hexapeptide inhibits collageninduced arthritis and VEGF-stimulated productions of TNF-alpha and IL-6 by human monocytes. J Immunol 174: 5846-5855. Blood from mice was collected, and then serum was collected by centrifugation at 4[…], followed by filtration through 0.22 um-pore filter. […] The flow rate was 0.3 ml/min, and analyzed by C18 reverse phase FPLC using a linear gradient of 20% from 0 to 100% using acetonitrile through a linear graduation of 20% (Vydac protein and peptide C18, 0.1% trifluoroacetate in water for equilibration, and 0.1% trifluoroacetate in acetonitrile for elution) (Life Technologies, Carlsbad, Calif.). […]
It was examined whether higher levels of imaging signals by the cyclic form of ApoPep-1 compared with those of the linear form of ApoPep-1 was due to the difference in serum stability of peptides. After incubation of the linear or cyclic form of ApoPep-1 with mouse serum up to 24 hours, the amount of the peptide remaining in the serum was analyzed. […]

Row | Structure (SMILES) | tumor volume compared with control group treated without drug [1] | amount of peptide remaining in the serum (peak area) ([2]; 37 degrees, up to 24 hours) | presence of peptide in serum by MS after incubation ([2]; incubation for 24 hours, MS of FPLC peak)
1 | N.N.[Cl][Pt][Cl] [cisplatin] | reduced tumor volumes |  | 
2 | N=C(N)NCCC[C@H](NC(=O)[C@@H]1CCCN1C(=O)[C@@H]1CCCN1C(=O)[C@H](CCCNC(=N)N)NC(=O)[C@H](CCC(N)=O)NC(=O)[C@@H](N)CS)C(=O)O [linear form of ApoPep-1, CQRPPR, reference compound] (H-CQRPPR-OH; N-terminus and C-terminus assumed) |  | not significantly changed | stably present
